Two compounds from patent US20150374702A1 (CATHOLIC UNIVERSITY INDUSTRY ACADEMIC COOPERATION FOUNDATION, priority 2013, published 2015) can be followed below.

Test [1] concerns Capan-1 xenograft tumor. Kind of test: Suppression of tumor growth by doxorubicin or liposomal doxorubicin after pentoxifylline pretreatment. The class given is in vivo, BALB/c nu/nu mice. To be noted: doxorubicin 8 mg/kg i.v., with or without pentoxifylline pretreatment 100 mg/kg/d for two weeks; normalized to volume at treatment start; P<0.05. The text has this: (§1) Female BALB/c nu/nu mice (5 to 6 weeks old) were purchased from Orient Bio Inc. (Seongnam City, Gyeonggi-do, Korea), and were raised in a germ-free animal breeding facility at the Catholic University of Korea, Catholic Medical Center (Seoul, Korea). The animals were raised in a standard state, and supplied with food and water ad libitum. The animals were taken care of in accordance with the guidelines of the Institutional Animal Care and Use Committee (IACUC) of School of Medicine of the Catholic University of Korea (Approval Number; CUMC-2010-0141-01). For induction of tumor, Capan-1 cells were harvested after the trypsin treatment, 5×10^6 living cells were subcutaneously injected into the right flanks of the mice. After tumor was induced, the mice were sacrificed, tumor samples were obtained, and experiments were performed according to each Example to be described below.

The subject of the next test is CD31. Kind of test: Blood vessel density by CD31 immunostaining in tumor sections. As to conditions: with versus without pentoxifylline. It is filed as in vivo, BALB/c nu/nu mice.
Source text: as §1

Test [2] deals with Capan-1 xenograft tumor. Kind of test: Suppression of tumor growth by combinatory treatment of pentoxifylline and gemcitabine. To be noted: pentoxifylline alone 100 mg/kg/d i.p., 28 days. It is filed as in vivo, BALB/c nu/nu mice.
Source text: as §1
The tumor size (mm^3) was calculated by using the equation: V=(a×b^2)/2 (a is the largest diameter of tumor, and b is the smallest diameter of tumor). The relative tumor size was normalized with respect to the volume when a drug treatment of Capan-1 xenograft tumor was initiated. At least three mice per group were used, and the results were presented as an average standard error (SE). The statistical significance was determined by using a 2-sample t-test inferred from the Microsoft Excel 2007. […]

For test [3], the system named is TGF-β1. Kind of test: Immunohistochemical staining of TGF-β1 in tumor sections. The class given is in vivo, mice.
Source text: as §1, with “below. […] Immunohistochemical staining for α-SMA, TGF-β1, and CTGF was performed using Dako Envision Detection System ([…], DAKO). Paraffin-embedded, formalin fixed samples were cut into sections having a thickness of 3 μm, deparaffinized and rehydrated. For antigen retrieval, a pressure cooker of a microwave method was used as a target retrieval solution ([…], DAKO) for 5 minutes (pH 9.0), and cooled at room temperature for 20 minutes. […]” for “below.”

The test system of another test is collagen type I. Kind of test: Collagen type I content in tumor sections (immunofluorescence). The class given is in vivo, mice.
Source text: as §1

Another test concerns mouse TGF-β1. Kind of test: TGF-β1 mRNA expression in tumor (quantitative real-time RT-PCR). The class given is in vivo. As to conditions: pentoxifylline versus control; direction not stated at b84.
Source text: as §1, with “After tumor was induced, the mice were sacrificed, tumor samples were obtained, and experiments were performed according to each Example to be described below.” left out
For the quantitative real-time RT-PCR analysis, total RNAs were isolated from tumor homogenates using the Trizol method and quantified by Nanodrop spectrophotometer (ND-1000). After 1 μg of total RNAs was reverse transcribed from the tissue with AccuPower CycleScript RT PreMix (Bioneer), a quantitative real-time polymerase chain reaction was performed using the LightCycler 480 Real-Time PCR System II (Roche) with SYBR Green Master mix (Roche) according to the manufacturer's recommendation. […]
All expression data were normalized using the GAPDH expression. The relative gene expression was quantified using the ΔΔCt method (2-ΔΔCt).
A general note: Real-time PCR tracks product formation cycle by cycle.

The test system of the next test is α-SMA. Kind of test: Immunohistochemical staining of α-SMA in tumor sections. The class given is in vivo, mice. As to conditions: pentoxifylline for two weeks; p<0.001.
Source text: as §1, with “below. […] Immunohistochemical staining for α-SMA, TGF-β1, and CTGF was performed using Dako Envision Detection System ([…], DAKO). Paraffin-embedded, formalin fixed samples were cut into sections having a thickness of 3 μm, deparaffinized and rehydrated. For antigen retrieval, a pressure cooker of a microwave method was used as a target retrieval solution ([…], DAKO) for 5 minutes (pH 9.0), and cooled at room temperature for 20 minutes. […]” for “below.”

Test [4] relates to mouse COLIA1 (collagen type I, alpha 1). Kind of test: Collagen type I mRNA expression in tumor (quantitative real-time RT-PCR). The class given is in vivo. As to conditions: pentoxifylline pretreatment for two weeks; P<0.02.
Source text: as §1, with “After tumor was induced, the mice were sacrificed, tumor samples were obtained, and experiments were performed according to each Example to be described below.” left out
In order to confirm the mRNA expression level of collagen type I, RT-PCR was performed. For the quantitative real-time RT-PCR analysis, total RNAs were isolated from tumor homogenates using the Trizol method and quantified by Nanodrop spectrophotometer (ND-1000). After 1 μg of total RNAs was reverse transcribed from the tissue with AccuPower CycleScript RT PreMix (Bioneer), a quantitative real-time polymerase chain reaction was performed using the LightCycler 480 Real-Time PCR System II (Roche) with SYBR Green Master mix (Roche) according to the manufacturer's recommendation. […]

For test [5], the system named is TGF-β1. Kind of test: Total and active TGF-β1 in tumor homogenate (ELISA). The class given is in vivo, mice. As to conditions: ELISA of tumor homogenate.
Source text: as §1
Frozen tumors were cut into small pieces, and homogenized using Precellys 24 homogenizer (Bertin Technologies) in Tissue Extraction Reagent I (Invitrogen) containing protease inhibitor cocktail (Complete Mini, Roche). […] Total protein concentrations were determined by BCA protein assay kit (Pierce). Total and active TGF-β1 concentrations were determined using TGF-β1 ELISA kit (eBioscience) according to the manufacturer's protocol.

For a further test, the system named is CTGF. Kind of test: Immunohistochemical staining of CTGF in tumor sections. The class given is in vivo, mice. To be noted: pentoxifylline for two weeks; p<0.05.
Source text: as §1, with “below. […] Immunohistochemical staining for α-SMA, TGF-β1, and CTGF was performed using Dako Envision Detection System ([…], DAKO). Paraffin-embedded, formalin fixed samples were cut into sections having a thickness of 3 μm, deparaffinized and rehydrated. For antigen retrieval, a pressure cooker of a microwave method was used as a target retrieval solution ([…], DAKO) for 5 minutes (pH 9.0), and cooled at room temperature for 20 minutes. […]” for “below.”

In the case of `COc1cccc2c1C(=O)c1c(O)c3c(c(O)c1C2=O)C[C@@](O)(C(=O)CO)C[C@@H]3O[C@H]1C[C@H](N)[C@H](O)[C@H](C)O1` [doxorubicin], in the test on Capan-1 xenograft tumor [1], the “relative tumor size at day 23” value stood at 1.52.
In the case of `CC(=O)CCCCn1c(=O)c2c(ncn2C)n(C)c1=O` [pentoxifylline, 1-(5-oxohexyl)-3,7-dimethylxanthine], in the test with CD31, the “blood vessel density exhibited by CD31 immunostaining” value is on record as “no difference between groups”. In addition, in the test on Capan-1 xenograft tumor [2], the “anti-tumor effects compared to the control group of saline treatment” value was “anti-tumor effects did not appear”. Also, the “effect on TGF-β1 immunohistochemical staining in the tumor tissue” value in the test on TGF-β1 [3] is “no effects”. Also, the “collagen content at high dose (100 mg/kg) versus low dose (50 mg/kg)” value in the test on collagen type I (i.p. for two weeks, P<0.05) is recorded as “slightly lower”. Further, the “collagen type I contents in central and marginal regions of the tumor sections” value in the test with collagen type I (pentoxifylline i.p. for two weeks versus saline) is on record as “reduced”. Moreover, in the test on mouse TGF-β1, the “TGF-β1 mRNA expression” value was “big difference”. In addition, the “reduction of immunostaining of α-SMA in the tumor sections” value in the test with α-SMA came out at 66%. In test [4], the “reduction of mRNA expression of collagen I compared to the control group” value turned out to be 72%. In addition, in the test with TGF-β1 [5], the “effect on active TGF-β1 level in the tumor tissue” value is reported as “no effects” and the “effect on total TGF-β1 level in the tumor tissue” value is listed as “no effects”. The “reduction of immunostaining of CTGF in the tumor sections” value with CTGF was found to be 25%.
